“And” between values parts separate entries of the source, which are not always exact repeats. Identical values can stand only once. Inconclusive results and toxic doses are left out.
System: CD2F1 mice, L1210 leukemia ip, survival T/C
Test: NCI In Vivo Anticancer Drug Screen. Data for tumor model L1210 Leukemia (intraperitoneal) in CD2F1 (CDF1) mice
Conditions: higher = longer survival
Method in brief: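 Vehicle-treated tumor-bearing mice served as controls (C) for compound-treated mice (T). Reported figure is T divided by C.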

[1] = endpoint: mean survival time, dose: 50.0 mg/kg/injection, schedule: Q01DX009 (ip), vehicle: saline
[2] = endpoint: mean survival time, dose: 100.0 mg/kg/injection, schedule: Q01DX009 (ip), vehicle: saline with Tween-80
[3] = endpoint: mean survival time, dose: 200.0 mg/kg/injection, schedule: Q01DX009 (ip), vehicle: saline with Tween-80
[4] = endpoint: mean survival time, dose: 400.0 mg/kg/injection, schedule: Q01DX009 (ip), vehicle: saline with Tween-80
[5] = endpoint: mean survival time, dose: 100.0 mg/kg/injection, schedule: Q04DX002 (ip), vehicle: saline with Tween-80
[6] = endpoint: mean survival time, dose: 200.0 mg/kg/injection, schedule: Q04DX002 (ip), vehicle: saline with Tween-80
[7] = endpoint: mean survival time, dose: 400.0 mg/kg/injection, schedule: Q04DX002 (ip), vehicle: saline with Tween-80
[8] = endpoint: mean survival time, dose: 100.0 mg/kg/injection, schedule: Q04DX003 (ip), vehicle: saline with Tween-80
[9] = endpoint: mean survival time, dose: 200.0 mg/kg/injection, schedule: Q04DX003 (ip), vehicle: saline with Tween-80
[10] = endpoint: mean survival time, dose: 400.0 mg/kg/injection, schedule: Q04DX003 (ip), vehicle: saline with Tween-80

CSC1SCC2C(=O)N(C)C(C(C)C)C(=O)OCC(NC(=O)c3cnc4ccccc4n3)C(=O)NC(C)C(=O)N(C)C1C(=O)N(C)C(C(C)C)C(=O)OCC(NC(=O)c1cnc3ccccc3n1)C(=O)NC(C)C(=O)N2C (stereo not drawn)
T/C (endpoint: mean survival time, dose: 4.0 micrograms/kg/injection, schedule: Q01DX009 (ip), vehicle: saline): 105 % of control | T/C (endpoint: mean survival time, dose: 8.0 micrograms/kg/injection, schedule: Q01DX009 (ip), vehicle: saline): 107 % of control | T/C (endpoint: mean survival time, dose: 15.0 micrograms/kg/injection, schedule: Q01DX009 (ip), vehicle: saline): 102 % of control | T/C (endpoint: mean survival time, dose: 16.0 micrograms/kg/injection, schedule: Q01DX009 (ip), vehicle: saline): 111 % of control | T/C (endpoint: mean survival time, dose: 30.0 micrograms/kg/injection, schedule: Q01DX009 (ip), vehicle: saline): 118 % of control | T/C (endpoint: mean survival time, dose: 32.0 micrograms/kg/injection, schedule: Q01DX009 (ip), vehicle: saline): 92 % of control | T/C (endpoint: mean survival time, dose: 60.0 micrograms/kg/injection, schedule: Q01DX009 (ip), vehicle: saline): 108 % of control | T/C (endpoint: mean survival time, dose: 120.0 micrograms/kg/injection, schedule: Q01DX009 (ip), vehicle: saline): 86 % of control | T/C (endpoint: mean survival time, dose: 192.0 micrograms/kg/injection, schedule: Q01DX009 (ip), vehicle: saline): 114 % of control | T/C (endpoint: median survival time, dose: 67.0 micrograms/kg/injection, schedule: Q01DX005 (ip), vehicle: saline): 122 % of control | T/C (endpoint: median survival time, dose: 150.0 micrograms/kg/injection, schedule: Q01DX005 (ip), vehicle: saline): 120 % of control and 123 % of control | T/C (endpoint: median survival time, dose: 200.0 micrograms/kg/injection, schedule: Q01DX005 (ip), vehicle: saline): 106 % of control

CCOc1ccc(/C=C/C(=O)c2ccc(C)cc2)cc1OCC
T/C (endpoint: mean survival time, dose: 37.5 mg/kg/injection, schedule: Q01DX009 (ip), vehicle: saline): 98 % of control | T/C (endpoint: mean survival time, dose: 75.0 mg/kg/injection, schedule: Q01DX009 (ip), vehicle: saline): 98 % of control | T/C (endpoint: mean survival time, dose: 150.0 mg/kg/injection, schedule: Q01DX009 (ip), vehicle: saline): 113 % of control

OCCN1CCN(CC/C=C2/c3ccccc3Sc3ccc(Cl)cc32)CC1
T/C (endpoint: mean survival time, dose: 1.56 mg/kg/injection, schedule: Q01DX009 (ip), vehicle: saline): 92 % of control and 97 % of control | T/C (endpoint: mean survival time, dose: 3.12 mg/kg/injection, schedule: Q01DX009 (ip), vehicle: saline): 98 % of control | T/C (endpoint: mean survival time, dose: 6.25 mg/kg/injection, schedule: Q01DX009 (ip), vehicle: saline): 104 % of control and 110 % of control | T/C (endpoint: mean survival time, dose: 12.5 mg/kg/injection, schedule: Q01DX009 (ip), vehicle: saline): 116 % of control and 110 % of control | T/C (endpoint: mean survival time, dose: 25.0 mg/kg/injection, schedule: Q01DX009 (ip), vehicle: saline): 122 % of control and 124 % of control | T/C [1]: 106 % of control

O=c1oc(-c2ccc(OCc3ccccc3)c(OCc3ccccc3)c2)c2c3ccccc3ccn12
T/C (endpoint: median survival time, dose: 25.0 mg/kg/injection, schedule: Q04DX003 (ip), vehicle: saline with Tween-80): 88 % of control | T/C (endpoint: median survival time, dose: 50.0 mg/kg/injection, schedule: Q04DX003 (ip), vehicle: saline with Tween-80): 88 % of control | T/C (endpoint: median survival time, dose: 100.0 mg/kg/injection, schedule: Q04DX003 (ip), vehicle: saline with Tween-80): 88 % of control | T/C (endpoint: median survival time, dose: 200.0 mg/kg/injection, schedule: Q04DX003 (ip), vehicle: saline with Tween-80): 100 % of control

Cc1ccc([N+](=O)[O-])cc1NC(=O)NNC(=O)CNC(=O)NCc1ccco1
T/C [2]: 91 % of control | T/C [3]: 89 % of control | T/C [4]: 97 % of control

OC1CCCN(c2c3ccccc3nc3ccccc23)C1 (stereo not drawn)
T/C [5]: 100 % of control | T/C [6]: 92 % of control | T/C [7]: 100 % of control

O=C(O)C(O)C(O)C(O)C(O)C(O)CO.[NH-]C1CCCCC1[NH-].[Pt+2] (stereo not drawn)
T/C (endpoint: median survival time, dose: 12.5 mg/kg/injection, schedule: Q04DX003 (ip), vehicle: saline): 153 % of control and 178 % of control | T/C (endpoint: median survival time, dose: 25.0 mg/kg/injection, schedule: Q04DX003 (ip), vehicle: saline): 266 % of control and 297 % of control | T/C (endpoint: median survival time, dose: 50.0 mg/kg/injection, schedule: Q04DX003 (ip), vehicle: saline): 175 % of control and 375 % of control | T/C (endpoint: median survival time, dose: 100.0 mg/kg/injection, schedule: Q04DX003 (ip), vehicle: saline): 103 % of control

COc1ccc(OC)c(-c2csc(=O)s2)c1
T/C (endpoint: mean survival time, dose: 25.0 mg/kg/injection, schedule: Q04DX002 (ip), vehicle: Klucel (hydroxypropylcellulose) (HPC)): 107 % of control | T/C (endpoint: mean survival time, dose: 50.0 mg/kg/injection, schedule: Q04DX002 (ip), vehicle: Klucel (hydroxypropylcellulose) (HPC)): 96 % of control | T/C (endpoint: mean survival time, dose: 100.0 mg/kg/injection, schedule: Q04DX002 (ip), vehicle: Klucel (hydroxypropylcellulose) (HPC)): 102 % of control | T/C (endpoint: mean survival time, dose: 200.0 mg/kg/injection, schedule: Q04DX002 (ip), vehicle: Klucel (hydroxypropylcellulose) (HPC)): 102 % of control | T/C (endpoint: mean survival time, dose: 400.0 mg/kg/injection, schedule: Q04DX002 (ip), vehicle: Klucel (hydroxypropylcellulose) (HPC)): 94 % of control

Nc1nc(N)c(N=Nc2ccc(S(=O)(=O)c3ccc(N=Nc4c(N)nc(N)[nH]c4=O)cc3)cc2)c(=O)[nH]1
T/C [2]: 102 % of control | T/C [3]: 92 % of control | T/C [4]: 92 % of control

CC(C)(C)c1cc(CN2CCCC(O)C2)c(O)c(-c2ccccc2)c1 (stereo not drawn)
T/C [1]: 107 % of control | T/C (endpoint: mean survival time, dose: 100.0 mg/kg/injection, schedule: Q01DX009 (ip), vehicle: saline): 104 % of control

CC(CCOP(=O)(N(CCCl)CCCl)N1CC1)OCc1ccccc1 (stereo not drawn)
T/C (endpoint: mean survival time, dose: 22.0 mg/kg/injection, schedule: Q01DX001 (ip), vehicle: other): 108 % of control | T/C (endpoint: mean survival time, dose: 33.0 mg/kg/injection, schedule: Q01DX001 (ip), vehicle: other): 111 % of control | T/C (endpoint: mean survival time, dose: 50.0 mg/kg/injection, schedule: Q01DX001 (ip), vehicle: other): 153 % of control

CCOC(CS(=O)(=O)CC(N)=O)OCC
T/C [8]: 98 % of control | T/C [9]: 93 % of control | T/C [10]: 104 % of control

O=C(CF)[O][Sb]([O]C(=O)CF)([c]1ccccc1)([c]1ccccc1)[c]1ccccc1
T/C (endpoint: mean survival time, dose: 5.0 mg/kg/injection, schedule: Q01DX009 (ip), vehicle: saline with Tween-80): 105 % of control | T/C (endpoint: mean survival time, dose: 10.0 mg/kg/injection, schedule: Q01DX009 (ip), vehicle: saline with Tween-80): 108 % of control

CC12CCC(=O)C=C1CCCC2O (stereo not drawn)
T/C (endpoint: mean survival time, dose: 100.0 mg/kg/injection, schedule: Q04DX003 (ip), vehicle: saline sonified): 97 % of control | T/C (endpoint: mean survival time, dose: 200.0 mg/kg/injection, schedule: Q04DX003 (ip), vehicle: saline sonified): 112 % of control

NC(=O)COc1c(I)cc(I)cc1I
T/C (endpoint: mean survival time, dose: 100.0 mg/kg/injection, schedule: Q01DX009 (ip), vehicle: saline sonified): 101 % of control | T/C [8]: 98 % of control | T/C (endpoint: mean survival time, dose: 200.0 mg/kg/injection, schedule: Q01DX009 (ip), vehicle: saline sonified): 92 % of control | T/C [9]: 98 % of control | T/C (endpoint: mean survival time, dose: 400.0 mg/kg/injection, schedule: Q01DX009 (ip), vehicle: saline sonified): 89 % of control | T/C [10]: 96 % of control

CC1OC(=O)C2(C(C)C)CC12 (stereo not drawn)
T/C (endpoint: mean survival time, dose: 9.5 mg/kg/injection, schedule: Q01DX001 (ip), vehicle: other): 103 % of control | T/C (endpoint: mean survival time, dose: 19.0 mg/kg/injection, schedule: Q01DX001 (ip), vehicle: other): 106 % of control

Cc1ccc(S(=O)(=O)Nc2ccc([N+](=O)[O-])cc2OS(=O)(=O)c2ccc(C)cc2)cc1
T/C (endpoint: mean survival time, dose: 100.0 mg/kg/injection, schedule: Q04DX003 (ip), vehicle: alcohol): 100 % of control | T/C (endpoint: mean survival time, dose: 200.0 mg/kg/injection, schedule: Q04DX003 (ip), vehicle: alcohol): 95 % of control | T/C (endpoint: mean survival time, dose: 400.0 mg/kg/injection, schedule: Q04DX003 (ip), vehicle: alcohol): 92 % of control

CN=C(N)c1ccc(N=C(N)c2ccc(N=C(N)c3ccc(NC(=O)c4ccc(C(=O)Nc5ccc(C(N)=Nc6ccc(C(N)=Nc7ccc(C(N)=NC)cc7)cc6)cc5)cc4)cc3)cc2)cc1
T/C (endpoint: mean survival time, dose: 62.5 mg/kg/injection, schedule: Q01DX Z (ip), vehicle: water): 111 % of control

O=C(/C=C/c1ccccc1)NC(=S)Nc1cc(Cl)ccc1Cl
T/C (endpoint: mean survival time, dose: 50.0 mg/kg/injection, schedule: Q01DX009 (ip), vehicle: saline with Tween-80): 95 % of control | T/C (endpoint: mean survival time, dose: 100.0 mg/kg/injection, schedule: Q01DX001 (ip), vehicle: saline with Tween-80): 90 % of control | T/C [2]: 112 % of control and 98 % of control and 100 % of control | T/C [5]: 95 % of control and 102 % of control | T/C [8]: 104 % of control | T/C (endpoint: mean survival time, dose: 200.0 mg/kg/injection, schedule: Q01DX001 (ip), vehicle: saline with Tween-80): 100 % of control | T/C [3]: 97 % of control and 98 % of control and 105 % of control | T/C [6]: 95 % of control and 110 % of control | T/C [9]: 104 % of control | T/C (endpoint: mean survival time, dose: 400.0 mg/kg/injection, schedule: Q01DX001 (ip), vehicle: saline with Tween-80): 105 % of control | T/C [4]: 115 % of control and 98 % of control and 100 % of control | T/C [7]: 105 % of control and 111 % of control | T/C [10]: 106 % of control

O=C(O)C1C2C=CC3(CN(CCc4ccccc4)C(=O)C13)O2 (stereo not drawn)
T/C [5]: 95 % of control | T/C [6]: 95 % of control | T/C [7]: 103 % of control
